Test results as given in patent US20080317723A1, “LYMPHATIC ENDOTHELIAL CELLS MATERIALS AND METHODS” (VEGENICS LIMITED, priority 2001, published 2008).

Legend:
Format in all cases: cell-based, human
[1] = tested on: p42/p44 MAPK; experiment: p42/p44 MAPK Thr202/Tyr204 phosphorylation in HMVE cells, Western blot
Protocol: Western blot analysis. Endothelial cells were cultured on 35 mm dishes to near confluence, starved for 24 h in serum free medium and stimulated as indicated. Wortmannin ([…]), LY294002 ([…]), PD98059 (10-25 μM) or GF109203X (2.5-5 μM) were added 1-3 h before stimulation, where indicated. DMSO, into which the inhibitors were dissolved, was used as a control. After the stimulation, the cells were lysed in lysis buffer (50 mM HEPES, pH 7.5, 150 mM NaCl, 10 mM EDTA, 100 mM NaF, 1% TritonX-100 supplemented with 2 mM Na3VO4, 0.5 mM PMSF, 100 U/ml approtinin and 10 μg/ml leupeptin). Clarified lysates were separated by SDS-PAGE, transferred to nitrocellulose and immunoblotted using the phosphospecific antibodies for Akt-Ser473, Akt-Thr308, p42/44 MAPK-Thr202/Tyr204 or CREB-Ser133. The bound antibodies were detected using horseradish peroxidase conjugated secondary antibodies and enhanced chemiluminescence detection system. The blots were stripped and reprobed with antibodies against Akt, MAPK or CREB for quantification by reading the optical densities of the signals with Multi-Analyst 2.0.1 program (Bio-Rad).
The p42/p44 MAPK activation was detected by Western blotting using phospho-Thr202/Tyr204-MAPK specific antibodies and CREB phosphorylation using phospho-Ser133 specific antibodies. The growth factor concentrations used were: VEGF 10 ng/ml, VEGF-C 100 ng/ml and VEGF-C156S 500 ng/ml. […] Effects of inhibition of protein kinase C by GF109203X, MEK1 by PD98059 and PI-3 kinase by LY294002 on p42/p44 MAPK Thr202/Tyr204 phosphorylation, CREB Ser133 phosphorylation and Akt Ser473 phosphorylation in HMVE cells. The growth factor concentrations used were: VEGF 1 ng/ml, VEGF-C 10 ng/ml and VEGF-C156S 500 ng/ml

[2] = tested on: HMVE cells; experiment: Serum starvation-induced apoptosis, cytoplasmic histone-associated DNA fragments (ELISA), non-sorted HMVE cells; details: non-sorted microvascular endothelial cells, serum-free 24 h, FIG. 2A
Description: FIG. 2A-FIG. 2B. VEGFR-2 and VEGFR-3, but not VEGFR-1 activating ligands inhibit apoptosis of serum-deprived HMVE cells. Measurement of the cytoplasmic histone-associated DNA fragments (mono- and oligonucleosomes) in serum-starved HMVE cells consisting of two cell populations of blood vascular and lymphatic endothelial cells (FIG. 2A) or in the isolated cell populations after magnetic cell sorting using VEGFR-3 antibodies (FIG. 2B). The enrichment factor of cytoplasmic oligonucleosomes in the apoptotic cells grown for 24 h in serum-free medium (BSA) was chosen as 100 (%). Data represent mean values from three independent experiments (mean±s.d.). […] Analysis of endothelial cell apoptosis. For the apoptosis assay, 70,000 cells per well were seeded into 24-well plates. Treatments were done in duplicates and apoptosis was detected by measuring cytoplasmic histone-associated DNA fragments using the death detection ELISA PLUS kit (Roche, Indianapolis, Ind.). […] Annexin-V-FLUOS (Roche, Indianapolis, Ind.) was used to detect phosphatidylserine on the apoptotic cells by fluorescence microscopy according to the instructions of the manufacturer. The simultaneous staining with propidium iodide (1 μg/ml) was used for discriminating possible necrotic cells.

[3] = tested on: VEGFR-2/EpoR; experiment: Ba/F3 bioassay, viability (MTT) of VEGFR-2/EpoR cells; details: FIG. 1B
Protocol: FIG. 1A-FIG. 1C. Analysis of the receptor-specificities of different VEGFs using the Ba/F3 bioassay. Measurement of the viability of Ba/F3 cells expressing the chimeric receptors VEGFR-1/EpoR (FIG. 1A), VEGFR-2/EpoR (FIG. 1B) or VEGFR-3/EpoR (FIG. 1C) in the presence of different VEGFs at indicated concentrations. Cell viability was determined using the MTT assay. Data represent the mean values from triplicate assays (mean±s.d.). FIG. 1D-FIG. 1G. Biosensor analysis of the interaction of VEGF-C (FIG. 1D, FIG. 1E) and VEGF-C156S (FIG. 1F, FIG. 1G) with VEGFR-3 (FIG. 1D, FIG. 1F) and VEGFR-2 (FIG. 1E, FIG. 1G). Chimeric receptor proteins were immobilized onto a carboxymethylated dextran surface. Growth factors were injected over the surface at a flow rate of 20 μl/min at the indicated concentrations. The sensorgrams shown have been subtracted with the corresponding signal obtained when the same sample was passed over a blank control channel.
Bioassay for VEGFR stimulation. […]
VEGF is an endothelial cell mitogen which has been also shown to protect endothelial cells from starvation and TNF-a induced apoptosis via activation of VEGFR-2 (Gerber et al, J. Biol. Chem., 273:30336-30343, 1998; Spyridopoulos et al., J. Mol. Cell. Cardiol., 29:1321-1330, 1997). […] The specificities of the growth factors used were determined using a cell survival bioassay. […]

| Molecule | duration of MAPK activation, in words [1] | p42/p44 MAPK activation (phosphorylation) [1] | protection from starvation induced DNA degradation (cytoplasmic histone-associated DNA fragments) [2] | survival of VEGFR-2/EpoR expressing cells [3] |
| --- | --- | --- | --- | --- |
| VEGF | more transient than that induced by VEGF-C | significantly stronger | able to protect microvascular endothelial cells from starvation induced DNA degradation | able to support the survival of the VEGFR-2/EpoR expressing cells |
| VEGF-C156S: VEGFR-3 specific mutant form of VEGF-C, cysteine 156 changed into serine; recombinant human (Thr103 to Ile225) (protein, UniProt P49767 103-225, looked up, variant C156S) TEETIKFAAAHYNTEILKSIDNEWRKTQCMPREVCIDVGKEFGVATNTFFKPPSVSVYRCGGCCNSEGLQCMNTSTSYLSKTLFEITVPLSQGPKPVTISFANHTSCRCMSKLDVYRQVHSII | – | MAPK activation in HMVE cells was detected | able to protect microvascular endothelial cells from starvation induced DNA degradation | did not affect the survival of these cells |
